Source: ChEMBL document CHEMBL5107987, “New naphtho/thienobenzo-triazoles with interconnected anti-inflammatory and cholinesterase inhibitory activity” (Eur J Med Chem, 2022)

Key:
[1] = target: Acetylcholinesterase (Electrophorus electricus) (UniProt O42275); assay: Inhibition of electric eel AChE using acetylthiocholine iodide as substrate pre-incubated for 5 mins followed by substrate addition at 500 uM and measured after 6 mins by Ellman's method relative to control
[2] = target: Cholinesterase (Equus caballus) (UniProt P81908); assay: Inhibition of equine serum BuChE using S-butyrylthiocholine iodide as substrate pre-incubated for 5 mins followed by substrate addition at 250 uM and measured after 6 mins by Ellman's method relative to control
Cholinesterase (Equus caballus), sequence (P81908 whole entry): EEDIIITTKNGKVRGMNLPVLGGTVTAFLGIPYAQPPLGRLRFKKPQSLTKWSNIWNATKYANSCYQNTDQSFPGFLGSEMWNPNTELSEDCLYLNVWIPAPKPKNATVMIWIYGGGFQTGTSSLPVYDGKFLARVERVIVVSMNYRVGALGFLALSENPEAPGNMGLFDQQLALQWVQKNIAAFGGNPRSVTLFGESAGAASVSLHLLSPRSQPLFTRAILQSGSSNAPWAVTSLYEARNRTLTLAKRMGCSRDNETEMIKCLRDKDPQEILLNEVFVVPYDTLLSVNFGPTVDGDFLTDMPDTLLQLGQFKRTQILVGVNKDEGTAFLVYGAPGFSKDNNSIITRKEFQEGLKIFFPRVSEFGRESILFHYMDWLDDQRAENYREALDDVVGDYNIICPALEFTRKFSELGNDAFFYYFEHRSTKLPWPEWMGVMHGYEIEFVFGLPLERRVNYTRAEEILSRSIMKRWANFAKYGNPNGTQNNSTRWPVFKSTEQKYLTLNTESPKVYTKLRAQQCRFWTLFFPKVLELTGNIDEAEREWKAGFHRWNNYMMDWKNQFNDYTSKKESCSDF

[3] = Inhibition of TNF-alpha production in LPS-stimulated human PBMC measured after 24 hrs by ELISA; format: functional, cell-based
[4] = Cytotoxicity against human PBMC assessed as effect on cell viability measured by Cell Titer Glo assay; format: toxicity, cell-based
[5] = target: Cholinesterase (Equus caballus) (UniProt P81908); assay: Inhibition of equine serum BuChE using S-butyrylthiocholine iodide as substrate pre-incubated for 5 mins followed by substrate addition at 200 uM and measured after 6 mins by Ellman's method relative to control
[6] = Inhibition of TNF-alpha production in LPS-stimulated human PBMC measured after 24 hrs by ELISA relative to control; format: functional
[7] = target: Acetylcholinesterase (Electrophorus electricus) (UniProt O42275); assay: Inhibition of electric eel AChE using acetylthiocholine iodide as substrate pre-incubated for 5 mins followed by substrate addition at 1000 uM and measured after 6 mins by Ellman's method relative to control
[8] = target: Acetylcholinesterase (Electrophorus electricus) (UniProt O42275); assay: Inhibition of electric eel AChE using acetylthiocholine iodide as substrate pre-incubated for 5 mins followed by substrate addition at 100 uM and measured after 6 mins by Ellman's method relative to control
[9] = target: Cholinesterase (Equus caballus) (UniProt P81908); assay: Inhibition of equine serum BuChE using S-butyrylthiocholine iodide as substrate pre-incubated for 5 mins followed by substrate addition at 100 uM and measured after 6 mins by Ellman's method relative to control
Acetylcholinesterase = Acetylcholinesterase (Electrophorus electricus, UniProt O42275); assay: Inhibition of electric eel AChE using acetylthiocholine iodide as substrate pre-incubated for 5 mins followed by substrate addition and measured after 6 mins by Ellman's method
Acetylcholinesterase, sequence (O42275 whole entry): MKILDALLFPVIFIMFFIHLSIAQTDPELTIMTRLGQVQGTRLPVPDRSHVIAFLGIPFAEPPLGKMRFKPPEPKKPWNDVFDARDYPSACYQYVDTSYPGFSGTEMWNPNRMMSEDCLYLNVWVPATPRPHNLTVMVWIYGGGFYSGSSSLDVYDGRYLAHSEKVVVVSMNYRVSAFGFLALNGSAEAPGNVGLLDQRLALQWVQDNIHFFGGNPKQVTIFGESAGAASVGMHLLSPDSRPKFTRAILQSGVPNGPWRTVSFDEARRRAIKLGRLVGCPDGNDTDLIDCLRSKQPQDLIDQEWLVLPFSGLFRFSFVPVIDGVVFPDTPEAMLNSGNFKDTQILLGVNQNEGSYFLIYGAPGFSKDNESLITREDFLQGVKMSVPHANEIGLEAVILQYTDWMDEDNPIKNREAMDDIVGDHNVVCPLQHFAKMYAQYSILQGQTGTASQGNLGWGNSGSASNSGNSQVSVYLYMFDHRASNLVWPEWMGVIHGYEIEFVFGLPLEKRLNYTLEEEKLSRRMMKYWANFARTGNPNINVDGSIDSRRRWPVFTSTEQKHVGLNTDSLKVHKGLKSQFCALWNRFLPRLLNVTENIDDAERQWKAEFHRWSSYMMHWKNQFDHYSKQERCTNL

[10] = target: Cholinesterase (Equus caballus) (UniProt P81908); assay: Inhibition of equine serum BuChE using S-butyrylthiocholine iodide as substrate pre-incubated for 5 mins followed by substrate addition at 500 uM and measured after 6 mins by Ellman's method relative to control
Cholinesterase = Cholinesterase (Equus caballus, UniProt P81908); assay: Inhibition of equine serum BuChE using S-butyrylthiocholine iodide as substrate pre-incubated for 5 mins followed by substrate addition and measured after 6 mins by Ellman's method
Cholinesterase, sequence (P81908 whole entry): as the sequence (P81908 whole entry) above

[11] = target: Cholinesterase (Equus caballus) (UniProt P81908); assay: Inhibition of equine serum BuChE using S-butyrylthiocholine iodide as substrate pre-incubated for 5 mins followed by substrate addition at 50 uM and measured after 6 mins by Ellman's method relative to control
[12] = target: Acetylcholinesterase (Electrophorus electricus) (UniProt O42275); assay: Inhibition of electric eel AChE using acetylthiocholine iodide as substrate pre-incubated for 5 mins followed by substrate addition at 800 uM and measured after 6 mins by Ellman's method relative to control
[13] = target: Cholinesterase (Equus caballus) (UniProt P81908); assay: Inhibition of equine serum BuChE using S-butyrylthiocholine iodide as substrate pre-incubated for 5 mins followed by substrate addition at 800 uM and measured after 6 mins by Ellman's method relative to control

Acetylcholinesterase (Electrophorus electricus), sequence (O42275 24-633 limits assumed): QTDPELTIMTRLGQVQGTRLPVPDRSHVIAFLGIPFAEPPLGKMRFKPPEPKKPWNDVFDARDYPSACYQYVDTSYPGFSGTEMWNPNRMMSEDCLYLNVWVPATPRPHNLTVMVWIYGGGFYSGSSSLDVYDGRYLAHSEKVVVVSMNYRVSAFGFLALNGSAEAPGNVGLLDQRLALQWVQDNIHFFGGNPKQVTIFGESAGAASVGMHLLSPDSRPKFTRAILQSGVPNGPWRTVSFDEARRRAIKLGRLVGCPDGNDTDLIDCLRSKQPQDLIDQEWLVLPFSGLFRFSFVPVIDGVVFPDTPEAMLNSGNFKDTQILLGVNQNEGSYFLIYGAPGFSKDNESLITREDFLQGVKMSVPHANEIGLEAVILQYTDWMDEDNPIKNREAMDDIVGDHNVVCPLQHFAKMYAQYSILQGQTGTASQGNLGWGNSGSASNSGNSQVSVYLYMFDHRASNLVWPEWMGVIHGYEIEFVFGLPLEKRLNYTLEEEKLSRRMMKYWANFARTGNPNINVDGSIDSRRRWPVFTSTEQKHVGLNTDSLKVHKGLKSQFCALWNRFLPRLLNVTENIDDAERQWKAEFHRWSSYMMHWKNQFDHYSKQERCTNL

CCCn1cc(/C=C/c2cccs2)nn1
inhibition [1]: 36.9%
inhibition [2]: 79.2%
IC50 [3]: > 33 µM
Activity [4]: Non-Toxic

CCCn1nnc2ccc3sccc3c21
inhibition [5]: 91.7%
inhibition (INH) [6]: <50%
inhibition [7]: 56.2%

c1ccc2[nH]c(CCn3nnc4ccc5sccc5c43)cc2c1
inhibition (INH) [6]: <50%
Activity [4]: Non-Toxic

O=[N+]([O-])c1ccc(-n2cc(/C=C\c3cccs3)nn2)cc1
inhibition [8]: 34.1%
inhibition [9]: 12.3%

C(=C/c1cccs1)/c1cn(CCc2cc3ccccc3[nH]2)nn1
inhibition [1]: 67.4%
IC50 (Acetylcholinesterase): 596 µM
IC50 [3]: > 33 µM
inhibition [10]: 59.5%
Activity [4]: Non-Toxic
IC50 (Cholinesterase): 234 µM

COc1ccc(Cn2nnc3ccc4ccc(OC)cc4c32)cc1
IC50 [3]: 2.2 µM
Activity [4]: Non-Toxic

C=CCn1cc(/C=C/c2cccs2)nn1
IC50 [3]: > 33 µM
Activity [4]: Non-Toxic

COc1ccc(Cn2cc(/C=C/c3ccccc3C#N)nn2)cc1
IC50 [3]: > 33 µM
Activity [4]: Non-Toxic

O=[N+]([O-])c1ccc(-n2nnc3ccc4sccc4c32)cc1
inhibition [1]: 43.3%
inhibition (INH) [6]: <50%
inhibition [10]: 53.4%
IC50 (Cholinesterase): 449 µM

C=CCn1nnc2ccc3sccc3c21
inhibition [11]: 80%
inhibition [1]: 76.9%
IC50 (Acetylcholinesterase): 56.2 µM
IC50 [3]: 27.7 µM
Activity [4]: Non-Toxic
IC50 (Cholinesterase): 3.8 µM

COc1ccc(Cn2cc(/C=C\c3ccccc3C#N)nn2)cc1
IC50 [3]: > 33 µM
Activity [4]: Non-Toxic

COc1ccc2ccc3nnn(CCCCO)c3c2c1
IC50 [3]: 7.9 µM
Activity [4]: Non-Toxic

CC(C)n1nnc2ccc3ccccc3c21
inhibition (INH) [6]: <50%

C=CCn1cc(/C=C\c2cccs2)nn1
IC50 [3]: > 33 µM
Activity [4]: Non-Toxic

C[C@@H]1C[C@H]2[C@@H]3CCC4=CC(=O)C=C[C@]4(C)[C@@]3(F)[C@@H](O)C[C@]2(C)[C@@]1(O)C(=O)CO [DEXAMETHASONE]
IC50 [3]: 0.0036 µM

CC(c1ccccc1)n1cc(/C=C\c2cccs2)nn1 (stereo not drawn)
IC50 [3]: > 33 µM
Activity [4]: Non-Toxic

CC(C)n1nnc2ccc3ccc(Cl)cc3c21
IC50 [3]: 22.2 µM
Activity [4]: Non-Toxic

COc1ccc(Cn2nnc3ccc4cccc(C#N)c4c32)cc1
inhibition (INH) [6]: <50%

CCCn1cc(/C=C\c2cccs2)nn1
inhibition [5]: 66.1%
IC50 [3]: > 33 µM
Activity [4]: Non-Toxic
inhibition [7]: 21.9%
IC50 (Cholinesterase): 95.6 µM

OCCCCn1cc(/C=C\c2cccs2)nn1
inhibition [12]: 45.2%
inhibition [13]: 48.7%
